Assay results published in ChEMBL document CHEMBL5038615, “Discovery of a cinnamyl piperidine derivative as new neddylation inhibitor for gastric cancer treatment” (Eur J Med Chem, 2021).
Calls of active or inactive are those of the source. The rule behind the calls is not given here.

What was measured:
[1] = tested on: HGC-27; experiment: Induction of apoptosis in human HGC-27 cells assessed as reduction of mitochondrial membrane potential at 3 uM measured after 24 hrs by JC-1 staining based Flowcytometry assay (reference value: 2.4%); assay type: functional; parameters: scale not given: the % may be the effect or the level left
[2] = tested on: MGC-803; experiment: Cell cycle arrest in human MGC-803 cells assessed as accumulation of cells at G0/G1 phase at 7.5 uM measured after 24 hrs by Flowcytometry assay (reference value: 46.01%); assay type: functional
[3] = tested on: MGC-803; experiment: Cell cycle arrest in human MGC-803 cells assessed as accumulation of cells at G0/G1 phase at 2.5 uM measured after 24 hrs by Flowcytometry assay (reference value: 46.01%); assay type: functional
[4] = tested on: MGC-803; experiment: Cell cycle arrest in human MGC-803 cells assessed as accumulation of cells at G2/M phase at 2.5 uM measured after 24 hrs by Flowcytometry assay (reference value: 13.71%); assay type: functional
[5] = tested on: MGC-803; experiment: Induction of apoptosis in human MGC-803 cells assessed as down-regulation of Bcl2 at 2.5 to 7.5 uM measured after 24 hrs by Western blot assay; assay type: functional, cell-based; conditions: dose 2.5-7.5 µM
[6] = tested on: HGC-27; experiment: Induction of apoptosis in human HGC-27 cells assessed as necrotic cells at 3 uM measured after 24 hrs by AnnexinV/FITC staining based flow cytometry method (reference value: 1.2%); assay type: functional
[7] = molecular target: T1, NEDD8-activating enzyme E1 regulatory subunit (Homo sapiens) (UniProt Q13564); experiment: Inhibition of NAE-mediated neddylation in human MGC-803 cells assessed as cullin1-Nedd8 adduct formation at 2.5 to 7.5 uM measured after 24 hrs by western blot assay; assay type: cell-based; conditions: dose 2.5-7.5 µM
T1 sequence (whole entry): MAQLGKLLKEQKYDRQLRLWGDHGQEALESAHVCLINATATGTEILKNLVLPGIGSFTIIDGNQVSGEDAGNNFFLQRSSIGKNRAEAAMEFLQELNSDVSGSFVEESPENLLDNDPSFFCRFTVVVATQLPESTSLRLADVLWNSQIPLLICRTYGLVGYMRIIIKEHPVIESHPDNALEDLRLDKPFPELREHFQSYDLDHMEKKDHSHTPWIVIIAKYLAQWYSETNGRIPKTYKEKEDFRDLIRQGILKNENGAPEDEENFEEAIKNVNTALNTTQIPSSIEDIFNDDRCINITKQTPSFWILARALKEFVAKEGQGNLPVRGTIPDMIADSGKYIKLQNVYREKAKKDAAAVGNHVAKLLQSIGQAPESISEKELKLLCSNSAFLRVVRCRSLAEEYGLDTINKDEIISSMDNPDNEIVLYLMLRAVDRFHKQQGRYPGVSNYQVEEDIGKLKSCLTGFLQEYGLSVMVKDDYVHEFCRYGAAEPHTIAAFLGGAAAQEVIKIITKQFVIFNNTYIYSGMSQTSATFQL

[8] = tested on: HGC-27; experiment: Antiproliferative activity against human HGC-27 cells assessed as inhibition of cell proliferation measured after 72 hrs by MTT assay; assay type: functional, cell-based; conditions: HGC-27, 72 h
[9] = tested on: HGC-27; experiment: Induction of apoptosis in human HGC-27 cells assessed as upregulation of Bak at 3 to 9 uM measured after 24 hrs by Western blot assay; assay type: functional, cell-based; conditions: dose 3-9 µM
[10] = tested on: MGC-803; experiment: Induction of apoptosis in human MGC-803 cells assessed as viable cells at 7.5 uM measured after 48 hrs by AnnexinV/FITC staining based flow cytometry method (reference value: 97.4%); assay type: functional; conditions: read-out: Activity
[11] = tested on: HGC-27; experiment: Induction of apoptosis in human HGC-27 cells assessed as viable cells at 9 uM measured after 24 hrs by AnnexinV/FITC staining based flow cytometry method (reference value: 95.7%); assay type: functional; conditions: read-out: Activity
[12] = tested on: HGC-27; experiment: Induction of apoptosis in human HGC-27 cells assessed as necrotic cells at 6 uM measured after 24 hrs by AnnexinV/FITC staining based flow cytometry method (reference value: 1.2%); assay type: functional
[13] = tested on: MGC-803; experiment: Induction of apoptosis in human MGC-803 cells assessed as early apoptotic cells at 7.5 uM measured after 48 hrs by AnnexinV/FITC staining based flow cytometry method (reference value: 1.5%); assay type: functional
[14] = tested on: HGC-27; experiment: Antiproliferative activity against human HGC-27 cells assessed as cell survival at 7.5 uM preincubated with Z-VAD-FMK followed by compound addition and measured after 24 hrs by MTT assay; assay type: functional, cell-based
[15] = tested on: MGC-803; experiment: Cell cycle arrest in human MGC-803 cells assessed as accumulation of cells at G2/M phase at 5 uM measured after 24 hrs by Flowcytometry assay (reference value: 13.71%); assay type: functional
[16] = tested on: HGC-27; experiment: Induction of apoptosis in human HGC-27cells assessed as reduction of mitochondrial membrane potential at 6 uM measured after 24 hrs by JC-1 staining based Flowcytometry assay (reference value: 2.4%); assay type: functional; parameters: scale not given: the % may be the effect or the level left
[17] = tested on: MGC-803; experiment: Induction of apoptosis in human MGC-803 cells assessed as viable cells at 2.5 uM measured after 24 hrs by AnnexinV/FITC staining based flow cytometry method (reference value: 94.8%); assay type: functional; conditions: read-out: Activity
[18] = tested on: MGC-803; experiment: Induction of apoptosis in human MGC-803 cells assessed as viable cells at 2.5 uM measured after 48 hrs by AnnexinV/FITC staining based flow cytometry method (reference value: 97.4%); assay type: functional; conditions: read-out: Activity
[19] = tested on: HGC-27; experiment: Induction of apoptosis in human HGC-27 cells assessed as early apoptotic cells at 9 uM measured after 48 hrs by AnnexinV/FITC staining based flow cytometry method (reference value: 5.8%); assay type: functional

For `CCCCCc1ccc(NC(=O)C2CCN(C/C=C/c3ccccc3)CC2)cc1`, the Activity [1] was 4.4%, the Activity [2] was 37.06% and the Activity [3] was 48.87%. The Activity [4] was 17.77%, the Activity [5] was “Dose-Dependent Effect” and the Activity [6] was 0.4%. For the same compound, the inhibition [7] was “Active”, the IC50 [8] was 3.17 µM and the Activity [9] was “Dose-Dependent Effect”. The viability at 7.5 µM [10] was 0.4%, the viability at 9 µM [11] was 20.9% and the Activity [12] was 0.2%. The Activity [13] was 4%, the Activity [14] was “Active” and the Activity [15] was 19.31%. For the same compound, the Activity [16] was 45.3%, the viability at 2.5 µM [17] was 93.5% and the viability at 2.5 µM [18] was 50.6%. It also gave an Activity [19] of 0.2%.
